Columns and labels:
free iron = test: Free iron (Phen Green SK); type: cell-based, rat; details: in vitro cultured cell
Description: Isolated mucosal cells from both control and indomethacin-treated cultured gastric mucosa were used for free iron localization using Phen Green SK, an iron-sensitive fluorescence probe following the protocol as described in the product catalogue (Maity, P.; et al. J. Biol. Chem. 284:3058-3068; 2009). Cells were first incubated with Phen Green SK (20 μm) for 15 min at 37° C. in the dark. After the incubation, cells were washed with HBSS and used for fluorescence microscopy (Leica, DM-2500, Leica Microsystems). Staining of pheen Green SK was visualized using green filter.

[1] = tested on: cold-restrain stress induced mucosal injury; test: Cold-restrain stress induced mucosal injury; type: in vivo, Sprague-Dwaley rats; details: immobilized at 4° C. for 3.5 hrs; rats
[2] = tested on: primary cultured gastric epithelial cells; test: TUNEL assay in cultured gastric mucosal cells; type: cell-based, rat; details: in vitro cultured gastric mucosa
Description: Gastric mucosal cells were isolated and cultured as described earlier (Pal, C; et al. Free Radic Biol Med, 49(2), 258-267; 2010) with slight modification. Mucosa from rat stomach was scraped into HBSS (pH 7.4) containing 100 U/ml penicillin and 100-μg/ml streptomycin. The mucosa was then minced and suspended in HBSS (pH 7.4), containing 0.05% hyaluronidase and 0.1% collagenase type I. The suspension was incubated for 30 min at 37° C. in 5% CO2 environment with shaking and then filtered through a sterile nylon mess. The filtrate was centrifuged at 600×g for 5 min, the cell pellet was washed with HBSS (pH 7.4) and further centrifuged. The pellet was incubated in 5 ml of Hans F-12 media in T25 flask supplemented with 10% fetal bovine serum (FBS) and 100 U/ml penicillin, 100-μg/ml streptomycin and gentamycin. Cells were cultured at 37° C. with 5% CO2 and grown to ˜90% confluence before treatment.

[3] = Ferric reducing antioxidant power (FRAP) assay
Description: The antioxidant property of different tryptamine derivatives were assessed and compared with the known antioxidants for potency. […] The FRAP assay is based on the measurement of the ability of the substance to reduce Fe^3+ to Fe^2+, greater the reducing ability greater the anti oxidant property. Antioxidants reduce Fe^3+-TPTZ in to blue colored Fe^2+-TPTZ complex, which results in an increase in the absorbance at 595 nm giving a FRAP value. […] Absorbance changes at different time intervals (FIG. 6) as well as at different concentrations (FIG. 7) at time 6 min in the presence of different compounds at 595 nm were measured. FRAP values at 6 min and 65 min were calculated from different tryptamine derivatives and some known antioxidant (Table 1). […] DPPH assay based on the DPPH free radicals scavenging power of the antioxidant molecules. Higher the scavenging power higher will be the antioxidant property.
The assay was performed in a 96-well microplate. FRAP reagent was prepared by mixing of 10 ml acetate buffer (200 mM, pH-3.6), 1 ml of 2,4,6-tris(2-pyridyl)-s-triazine (TPTZ) solution (10 mM in 40 mM HCl) and 1 ml of ferric chloride solution (20 mM) in distilled water. For 1 h the mixture was kept in a water bath at 37° C. In 96-well microplates, 25 μL of the compounds under investigation dissolved (in methanol, some compound dissolved in water) at different concentrations in the range 1-25 μM was placed in triplicate and freshly prepared FRAP solution (175 μL) was added to this sample. A micro plate reader monitored the absorbance at 595 nm at different time intervals for up to 150 min. The absorbance of a mixture 175 μL TRAP sol and 25 μL methanol or water was taken which was subtracted from the absorbance of the samples at each time interval to calculate the absorbance change (ΔA). The FRAP value at time interval t (FRAP valuet) was calculated according to the formula: FRAP valuet(M)=(ΔatFl/ΔatFe^2+)×10^−5 Where ΔatFl is the absorbance change after the time interval t (6 and 65 min) relative to the tested flavonoid at the concentration of 10 μM and ΔatFe^2+ is the absorbance change at the same time interval relative to ferrous sulfate at the same concentration (Pal, C; et al. Free Radic Biol Med, 49(2), 258-267, 2010, Firuzi, O; et al. Biochim. Biophys. Acta 1721:174-184; 2005).

[4] = tested on: gastric mucosal primary cultured cells; test: Mitochondrial dehydrogenase activity (MTT reduction assay); type: cell-based, rat
Description: Mitochondrial metabolic function was studied by observing the ability of mitochondrial dehydrogenases to reduce MTT ([3-(4,5-dimethylthiazol-2-yl)-2,5-diphenyl tetrazolium bromide]) into formazan dye (Pal, C; et al. Free Radic Biol Med, 49(2), 258-267; 2010). Equal number of gastric mucosal primary cultured cells were taken (10^6) in each well of a 12 well plate and were divided into three groups control, indomethacin treated (5 mM) and SEGA (50 μM) plus indomethacin (5 mM)-treated. After incubating for 16 hrs, cells were dissociated and centrifuged at 500×g for 5 min and the supernatant was then discarded. Cell pellet was reconstituted in fresh cell culture media. Equal number of cells (10^5 cells) in a final volume of 100 μl cell culture media from each group was then taken in 96 well plates in triplicates. MTT (0.1% final concentration) solution was added to each well of both control and experimental groups, mixed well and incubated for 3 hrs at 37° C. in a CO2 incubator. After the incubation, the culture medium was aspirated carefully and the insoluble formazan crystals at the bottom of the well were solubilized with 100 μl of MTT solubilization solution containing 10% Triton X-100 plus 0.1 N HCl in anhydrous isopropanol. The MTT reduction (absorbance of formazan dye) was measured at 570 nm.

In the case of O=C(NCCc1c[nH]c2ccc(O)cc12)c1cc(O)c(O)c(O)c1 [Compound 3a, 3,4,5-trihydroxy-N-(2-(5-hydroxy-1H-indol-3-yl)ethyl)benzamide], the “intramitochondrial iron chelation (Phen Green SK)” value (free iron) was “chelates the intramitochondrial iron”, the “gastroprotective effect in stress induced gastropathy” value [1] was “protects the gastric mucosa” and the “indomethacin-induced apoptosis (TUNEL) in vitro” value [2] was “prevents the indomethcin-induced apoptosis”. For the same compound, the “FRAP Value6 min (μM) M ± SD” value ([3]; 6 min, compound at 10 μM relative to ferrous sulfate) was 39.51 ± 2.7 µM, the “FRAP Value65 min (μM) M ± SD” value ([3]; 65 min, compound at 10 μM relative to ferrous sulfate) was 60.61 ± 7.3 µM and the “reducing ability (Fe^3+ to Fe^2+) / antioxidant property in words” value ([3]; compared to other tryptamine derivatives and known antioxidants) was “greater reducing ability”. The “toxicity as established by MTT reduction assay” value [4] was “non toxic molecule” and the “mitochondrial dehydrogenase activity (MTT reduction)” value ([4]; SEGA 50 μM plus indomethacin 5 mM, 16 hrs) was “restores all the NSAIDs-induced mitochondrial dysfuctions”.

From patent publication US8901317B2, “Tryptamine derivatives, their preparation and their use in gastropathy” (Council of Scientific & Industrial Research, priority 2010, dated 2014)
